We go through 1 compound from US12459951B2, “Compounds that interact with RAS superfamily proteins for treatment of cancers, inflammatory diseases, rasopathies, and fibrotic disease” (SHY Therapeutics, LLC, priority 2022, dated 2025).

For this test, the system named is HPAF-II (expressing KRas G12D mutant). Briefly: Proliferation Assay (Cell Viability Assay). The class given is cell-based. The conditions noted are these: Homo sapiens, pancreatic. The method in brief:
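Cells plated at 2000–5000/well overnight, then treated 2–4 days at 37 °C, 5% CO2 with compound at 10 μM single dose or serial dilutions for IC50, in 0.3% DMSO and 10% FBS. Viability read by CellTiter 96 Aqueous One (MTS); % proliferation inhibition calculated from raw data.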

For `COc1ccnc(Nc2nc(-c3nccn3C)nn3cc(-c4ccn(C(C)C)n4)c(C)c23)c1` [Compound 58, 6-(1-Isopropyl-1H-pyrazol-3-yl)-N-(4-methoxypyridin-2-yl)-5-methyl-2-(1-methyl-1H-imidazol-2-yl)pyrrolo[2,1-f][1,2,4]triazin-4-amine], the IC50 was under 0.15 µM.

Usually IC50 stands for the concentration that gives 50% inhibition. A lower IC50 goes with inhibition by little substance.
